Reference: ChEMBL document CHEMBL3632490, “Cytotoxic Barrigenol-like Triterpenoids from an Extract of Cyrilla racemiflora Housed in a Repository” (J Nat Prod, 2015)

test system: not listed separately; experiment: Cytotoxicity against human CCD-112CoN cells assessed as inhibition of cell viability after 3 days by sulforhodamine B assay; type: cell-based; conditions: 72 h

Row | Compound | IC50 [µM]
1 | C/C=C(/C)C(=O)O[C@H]1[C@H](O)[C@]2(CO)[C@H](O)C[C@]3(C)C(=CC[C@@H]4[C@@]5(C)CC[C@H](O)C(C)(C)[C@@H]5CC[C@]43C)[C@@H]2CC1(C)C | 5.9
2 | CC(=O)O[C@H]1C(=O)[C@@]2(C)[C@H]([C@H](OC(=O)c3ccccc3)[C@]3(O)C[C@H](OC(=O)[C@H](O)[C@@H](NC(=O)c4ccccc4)c4ccccc4)C(C)=C1C3(C)C)[C@]1(OC(C)=O)CO[C@@H]1C[C@@H]2O [PACLITAXEL] | 19.3

test system: HT-29; experiment: Cytotoxicity against human HT-29 cells assessed as inhibition of cell viability after 3 days by sulforhodamine B assay; type: functional, cell-based; conditions: HT-29, 72 h

Row | Compound | IC50 [µM]
3 | CC1(C)C[C@H]2C3=CC[C@@H]4[C@@]5(C)C=CC(=O)C(C)(C)[C@@H]5CC[C@@]4(C)[C@]3(C)C[C@@H](O)[C@@]2(CO)[C@@H](O)[C@@H]1O | > 10
4 | C/C=C(/C)C(=O)O[C@@H]1[C@@H](O)[C@H](O[C@H]2CC(C)(C)C[C@H]3C4=CC[C@@H]5[C@@]6(C)C=C[C@H](O)C(C)(C)[C@@H]6CC[C@@]5(C)[C@]4(C)C[C@@H](O)[C@@]23CO)O[C@H](CO)[C@H]1OC(=O)/C(C)=C\C | > 10
5 | C/C=C(/C)C(=O)O[C@H]1[C@H](OC(C)=O)[C@]2(CO)[C@H](O)C[C@]3(C)C(=CC[C@@H]4[C@@]5(C)CC[C@H](O)C(C)(C)[C@@H]5CC[C@]43C)[C@@H]2CC1(C)C | 7.8
6 | C/C=C(/C)C(=O)O[C@H]1CC(C)(C)C[C@H]2C3=CC[C@@H]4[C@@]5(C)CC[C@H](O)C(C)(C)[C@@H]5CC[C@@]4(C)[C@]3(C)[C@@H](O)[C@@H](O)[C@@]12CO | 8.7
7 | C/C=C(/C)C(=O)O[C@H]1[C@H](O)C(C)(C)C[C@H]2C3=CC[C@@H]4[C@@]5(C)CC[C@H](O)C(C)(C)[C@@H]5CC[C@@]4(C)[C@]3(C)[C@@H](O)[C@@H](O)[C@]21CO | > 10
8 | C/C=C(/C)C(=O)O[C@H]1[C@H](O)[C@]2(CO)[C@H](O)C[C@]3(C)C(=CC[C@@H]4[C@@]5(C)CC[C@H](O)C(C)(C)[C@@H]5CC[C@]43C)[C@@H]2CC1(C)C | 1.7
